In general, inhibition refers to the change of the read-out against control, counted positive when it falls. By pIC50 is commonly meant the IC50 on a negative log10 scale, so that one unit is a factor of ten. Low values mean a high IC50, high ones a low IC50.

The values that follow come from ChEMBL document CHEMBL4184271, “Design, synthesis, anti-inflammatory activity and molecular docking of potential novel antipyrine and pyrazolone analogs as cyclooxygenase enzyme (COX) inhibitors” (Bioorg Med Chem Lett, 2018).

pIC50: −log10 of the molar value.

One assay concerns Rattus norvegicus. Kind of assay: Anti-inflammatory activity in Sprague-Dawley rat assessed as inhibition of carrageenan-induced edema in hind paw administered ip measured after 4 to 6 hrs relative to control. Format: functional.
Turning to `CC1=NN(c2ccccc2)C(=O)C1C(c1ccc2c(c1)OCO2)N1CCN(C(c2ccc3c(c2)OCO3)C2C(=O)N(c3ccccc3)N=C2C)CC1` (stereo not given), the “inhibition (INH)” value is 21.1%.

In the case of `CC1=NN(c2ccccc2)C(=O)C1C(Nc1c(C)n(C)n(-c2ccccc2)c1=O)c1ccc2c(c1)OCO2` (stereo not given), the “inhibition (INH)” value is 48.3%.

In the case of `Cc1ccc(-c2cc(C(F)(F)F)nn2-c2ccc(S(N)(=O)=O)cc2)cc1` [CELECOXIB], the “inhibition (INH)” value was found to be 89%.

As to `CC1=NN(c2ccccc2)C(=O)/C1=C\c1c(C)n(C)n(-c2ccccc2)c1=O`, the “inhibition (INH)” value was 49.1%.

On to `CC1=NN(c2ccccc2)C(=O)C1C(c1c(C)n(C)n(-c2ccccc2)c1=O)N1CCCCC1` (stereo not given), for which the “inhibition (INH)” value turned out to be 40.5%.

With `CC1=NN(c2ccccc2)C(=O)C1C(c1c(C)c(=O)n(-c2ccccc2)n1C)N1CCN(C(c2c(C)c(=O)n(-c3ccccc3)n2C)C2C(=O)N(c3ccccc3)N=C2C)CC1` (stereo not given), the “inhibition (INH)” value is listed as 49.5%.

With `Cc1c(CN2CCC(CCCC3CCN(Cc4c(C)n(C)n(-c5ccccc5)c4=O)CC3)CC2)c(=O)n(-c2ccccc2)n1C`, the “inhibition (INH)” value worked out at 85.4%.

In the case of `CC1=NN(c2ccccc2)C(=O)C1C(Nc1c(C)n(C)n(-c2ccccc2)c1=O)c1c(C)n(C)n(-c2ccccc2)c1=O` (stereo not given), the “inhibition (INH)” value is 39.4%.

In the case of `CC1=NN(c2ccccc2)C(=O)/C1=C\c1ccc2c(c1)OCO2`, the “inhibition (INH)” value is 20.3%.

Consider `Cc1nn(-c2ccccc2)c(O)c1C(c1c(-c2ccccc2)[nH]c2ccccc12)c1c(C)c(=O)n(-c2ccccc2)n1C` (stereo not given), for which the “inhibition (INH)” value is on record as 35.9%.

As for `Cc1c(C(CCCC(c2c(C)n(C)n(-c3ccccc3)c2=O)c2c(C)n(C)n(-c3ccccc3)c2=O)c2c(C)n(-c3ccccc3)n(C)c2=O)c(=O)n(-c2ccccc2)n1C` (stereo not given), the “inhibition (INH)” value came out at 75%.

As to `Cc1c(CN2CCN(CCO)CC2)c(=O)n(-c2ccccc2)n1C`, the “inhibition (INH)” value was found to be 48.2%.

In another assay the target is T1, Prostaglandin G/H synthase 1 (Ovis aries) (UniProt P05979).
T1 sequence (whole entry): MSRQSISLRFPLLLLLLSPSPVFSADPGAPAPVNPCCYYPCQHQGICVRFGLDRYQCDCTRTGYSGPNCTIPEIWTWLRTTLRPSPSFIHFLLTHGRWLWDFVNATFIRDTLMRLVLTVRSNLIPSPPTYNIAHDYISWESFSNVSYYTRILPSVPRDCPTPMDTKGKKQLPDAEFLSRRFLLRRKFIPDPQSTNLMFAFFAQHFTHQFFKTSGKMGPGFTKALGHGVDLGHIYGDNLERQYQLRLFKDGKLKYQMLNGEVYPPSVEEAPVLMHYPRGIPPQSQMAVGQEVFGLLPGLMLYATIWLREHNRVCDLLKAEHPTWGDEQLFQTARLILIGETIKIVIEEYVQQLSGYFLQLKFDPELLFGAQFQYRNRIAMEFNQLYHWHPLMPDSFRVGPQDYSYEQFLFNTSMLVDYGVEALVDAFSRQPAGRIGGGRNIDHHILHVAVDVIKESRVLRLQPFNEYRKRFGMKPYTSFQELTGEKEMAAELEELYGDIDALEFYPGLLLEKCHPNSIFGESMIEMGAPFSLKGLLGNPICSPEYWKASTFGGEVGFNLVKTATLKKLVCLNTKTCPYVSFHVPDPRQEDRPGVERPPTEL
Kind of assay: Inhibition of ovine COX1 at 5 uM using arachidonic acid as substrate preincubated for 10 mins followed by substrate addition measured after 5 mins by ELISA relative to control. In general terms: An ELISA detects its analyte on a solid surface through an enzyme-linked reagent.
`CC1=NN(c2ccccc2)C(=O)C1C(c1ccc2c(c1)OCO2)N1CCN(C(c2ccc3c(c2)OCO3)C2C(=O)N(c3ccccc3)N=C2C)CC1` (stereo not given) registered an inhibition of 42.9%.

The compound `CC1=NN(c2ccccc2)C(=O)C1C(Nc1c(C)n(C)n(-c2ccccc2)c1=O)c1ccc2c(c1)OCO2` (stereo not given) showed an inhibition of 84.2%.

For the compound `CC1=NN(c2ccccc2)C(=O)/C1=C\c1c(C)n(C)n(-c2ccccc2)c1=O`, the inhibition was 87%.

Compound `CC1=NN(c2ccccc2)C(=O)C1C(c1c(C)n(C)n(-c2ccccc2)c1=O)N1CCCCC1` (stereo not given) displayed an inhibition of 78%.

`CC1=NN(c2ccccc2)C(=O)C1C(c1c(C)c(=O)n(-c2ccccc2)n1C)N1CCN(C(c2c(C)c(=O)n(-c3ccccc3)n2C)C2C(=O)N(c3ccccc3)N=C2C)CC1` (stereo not given): the inhibition came to 87.4%.

Turning to `Cc1c(CN2CCC(CCCC3CCN(Cc4c(C)n(C)n(-c5ccccc5)c4=O)CC3)CC2)c(=O)n(-c2ccccc2)n1C`, the inhibition turned out to be 88.5%.

Turning to `CC1=NN(c2ccccc2)C(=O)C1C(Nc1c(C)n(C)n(-c2ccccc2)c1=O)c1c(C)n(C)n(-c2ccccc2)c1=O` (stereo not given), the inhibition was found to be 58.8%.

The compound `CC1=NN(c2ccccc2)C(=O)/C1=C\c1ccc2c(c1)OCO2` gave an inhibition of 25%.

For the compound `Cc1nn(-c2ccccc2)c(O)c1C(c1c(-c2ccccc2)[nH]c2ccccc12)c1c(C)c(=O)n(-c2ccccc2)n1C` (stereo not given), the inhibition was 69.1%.

`Cc1c(C(CCCC(c2c(C)n(C)n(-c3ccccc3)c2=O)c2c(C)n(C)n(-c3ccccc3)c2=O)c2c(C)n(-c3ccccc3)n(C)c2=O)c(=O)n(-c2ccccc2)n1C` (stereo not given) came in with an inhibition of 81.3%.

Regarding `Cc1c(CN2CCN(CCO)CC2)c(=O)n(-c2ccccc2)n1C`, the inhibition came out at 73.4%.

For another assay, the target named is T2, Prostaglandin G/H synthase 1 (Ovis aries, UniProt P05979).
T2 sequence (P05979 whole entry): T1 sequence (whole entry)
Kind of assay: Inhibition of ovine COX1 using arachidonic acid as substrate preincubated for 10 mins followed by substrate addition measured after 5 mins by ELISA.
The compound `CC1=NN(c2ccccc2)C(=O)C1C(c1ccc2c(c1)OCO2)N1CCN(C(c2ccc3c(c2)OCO3)C2C(=O)N(c3ccccc3)N=C2C)CC1` (stereo not given) had a pIC50 of under 5.30.

On to `CC1=NN(c2ccccc2)C(=O)C1C(Nc1c(C)n(C)n(-c2ccccc2)c1=O)c1ccc2c(c1)OCO2` (stereo not given), for which the pIC50 was 5.60.

For the compound `CC1=NN(c2ccccc2)C(=O)/C1=C\c1c(C)n(C)n(-c2ccccc2)c1=O`, the pIC50 is under 5.30.

Compound `CC1=NN(c2ccccc2)C(=O)C1C(c1c(C)n(C)n(-c2ccccc2)c1=O)N1CCCCC1` (stereo not given) showed a pIC50 of 5.88.

Regarding `CC1=NN(c2ccccc2)C(=O)C1C(c1c(C)c(=O)n(-c2ccccc2)n1C)N1CCN(C(c2c(C)c(=O)n(-c3ccccc3)n2C)C2C(=O)N(c3ccccc3)N=C2C)CC1` (stereo not given), the pIC50 was 5.94. The pIC50 values of the last two compounds are within 0.2 log units of each other.

In turn, `Cc1c(CN2CCC(CCCC3CCN(Cc4c(C)n(C)n(-c5ccccc5)c4=O)CC3)CC2)c(=O)n(-c2ccccc2)n1C` had a pIC50 of 5.91. This pIC50 and that of the compound before are within 0.2 log units of each other.

For the compound `CC1=NN(c2ccccc2)C(=O)C1C(Nc1c(C)n(C)n(-c2ccccc2)c1=O)c1c(C)n(C)n(-c2ccccc2)c1=O` (stereo not given), the pIC50 is under 5.30.

In turn, `CC1=NN(c2ccccc2)C(=O)/C1=C\c1ccc2c(c1)OCO2` had a pIC50 of 4.65.

The compound `Cc1nn(-c2ccccc2)c(O)c1C(c1c(-c2ccccc2)[nH]c2ccccc12)c1c(C)c(=O)n(-c2ccccc2)n1C` (stereo not given) had a pIC50 of under 5.30.

In turn, `Cc1c(C(CCCC(c2c(C)n(C)n(-c3ccccc3)c2=O)c2c(C)n(C)n(-c3ccccc3)c2=O)c2c(C)n(-c3ccccc3)n(C)c2=O)c(=O)n(-c2ccccc2)n1C` (stereo not given) gave a pIC50 of 5.84.

The compound `Cc1c(CN2CCN(CCO)CC2)c(=O)n(-c2ccccc2)n1C` gave a pIC50 of under 5.30.

Another assay is filed under the species Ovis aries. Briefly: Selectivity ratio of compound effect for inhibition of ovine COX2 to compound effect for inhibition of ovine COX1.
Regarding `CC1=NN(c2ccccc2)C(=O)C1C(c1ccc2c(c1)OCO2)N1CCN(C(c2ccc3c(c2)OCO3)C2C(=O)N(c3ccccc3)N=C2C)CC1` (stereo not given), the Selectivity ratio was determined as 1.2.

Take `CC1=NN(c2ccccc2)C(=O)C1C(Nc1c(C)n(C)n(-c2ccccc2)c1=O)c1ccc2c(c1)OCO2` (stereo not given): the Selectivity ratio was 0.82.

Regarding `CC1=NN(c2ccccc2)C(=O)/C1=C\c1c(C)n(C)n(-c2ccccc2)c1=O`, the Selectivity ratio is 0.87.

Consider `CC1=NN(c2ccccc2)C(=O)C1C(c1c(C)n(C)n(-c2ccccc2)c1=O)N1CCCCC1` (stereo not given), for which the Selectivity ratio came to 0.95.

Take `CC1=NN(c2ccccc2)C(=O)C1C(c1c(C)c(=O)n(-c2ccccc2)n1C)N1CCN(C(c2c(C)c(=O)n(-c3ccccc3)n2C)C2C(=O)N(c3ccccc3)N=C2C)CC1` (stereo not given): the Selectivity ratio came to 0.87.

For the compound `Cc1c(CN2CCC(CCCC3CCN(Cc4c(C)n(C)n(-c5ccccc5)c4=O)CC3)CC2)c(=O)n(-c2ccccc2)n1C`, the Selectivity ratio amounted to 0.78.

As to `CC1=NN(c2ccccc2)C(=O)C1C(Nc1c(C)n(C)n(-c2ccccc2)c1=O)c1c(C)n(C)n(-c2ccccc2)c1=O` (stereo not given), the Selectivity ratio was determined as 1.01.

In the case of `CC1=NN(c2ccccc2)C(=O)/C1=C\c1ccc2c(c1)OCO2`, the Selectivity ratio came to 0.67.

As to `Cc1nn(-c2ccccc2)c(O)c1C(c1c(-c2ccccc2)[nH]c2ccccc12)c1c(C)c(=O)n(-c2ccccc2)n1C` (stereo not given), the Selectivity ratio worked out at 0.79.

With `Cc1c(C(CCCC(c2c(C)n(C)n(-c3ccccc3)c2=O)c2c(C)n(C)n(-c3ccccc3)c2=O)c2c(C)n(-c3ccccc3)n(C)c2=O)c(=O)n(-c2ccccc2)n1C` (stereo not given), the Selectivity ratio was determined as 0.48.

As to `Cc1c(CN2CCN(CCO)CC2)c(=O)n(-c2ccccc2)n1C`, the Selectivity ratio is 1.05.
